# From US20140107109A1, “AMINO-DIHYDROTHIAZINE AND AMINO-DIOXIDO DIHYDROTHIAZINE COMPOUNDS AS BETA-SECRETASE ANTAGONISTS AND METHODS OF USE” (Amgen Inc., priority 2012, published 2014)
# Where two headings read alike, the source gives them in different places.
# Tests used:
# [1] = biological target: T1, Cathepsin D (Cat D) (Homo sapiens, UniProt P07339); assay: In vitro enzymatic Cathepsin D (Cat D) FRET assay; format: biochemical; conditions: read-out: CatD IC50
# T1 construct: Recombinant Cat D was expressed in CHO cells; made in house; host or cells: CHO cells
# T1 sequence (P07339 65-412, species assumed): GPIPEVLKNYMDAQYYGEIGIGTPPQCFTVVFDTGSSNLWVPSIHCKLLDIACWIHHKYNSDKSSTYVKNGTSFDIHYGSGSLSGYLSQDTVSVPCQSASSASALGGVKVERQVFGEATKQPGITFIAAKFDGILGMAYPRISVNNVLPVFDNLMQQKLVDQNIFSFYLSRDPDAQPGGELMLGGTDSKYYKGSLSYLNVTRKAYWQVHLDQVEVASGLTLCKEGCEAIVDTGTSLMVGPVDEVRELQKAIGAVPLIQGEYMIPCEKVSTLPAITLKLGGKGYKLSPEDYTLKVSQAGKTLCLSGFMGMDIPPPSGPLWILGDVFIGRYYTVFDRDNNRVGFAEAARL
# Method: In Vitro Enzymatic Cathepsin D (Cat D) FRET (Fluorescence Resonance Energy Transfer) Assay Recombinant Cat D was expressed in CHO cells. […] The Cat D enzyme (9 nM) is pre-incubated for one hour with inhibitors, typically in about 1 uL of DMSO according to a serial dilution, is added thereto. […] The FRET assay is terminated with by addition of Tris buffer, which raises the pH to neutrality, and the fluorescence is determined. The FRET substrate is a peptide with commercially available fluorophore and quencher, on opposite sides of the BACE cleavage site. The Cat D substrate peptide sequence is based on sequence #1 of Table 1 from Gulnik et al. […] Alternatively, a Cat D assay may also be run according to the procedure described in the article, Characterization of new fluorgenic substrates for the rapid and sensitive assay of cathepsin E and cathepsin D, J. Biochem., 125:1137, 1999. In addition, the cathepsin D and cathepsin E assays are described in PCT publication WO2011069934. This WIPO publication describes BACE inhibitor compounds having an amide linker connecting two aromatic groups with extremely poor cathepsin D and/or cathepsin E inhibitory activity (see Table 2). Where available, the in-vitro Cat D FRET assay data for each of the Examples, conducted by the first procedure, is provided.
# [2] = test system: Aβ40 in conditioned medium of cells stably expressing Amyloid Precursor Protein (APP); assay: In vitro BACE cell-based assay (HEK cell assay), Aβ40 sandwich ELISA; conditions: Homo sapiens, HEK293
# Method: In Vitro BACE Cell-Based Assay
# The cell-based assay measures inhibition or reduction of Aβ40 in conditioned medium of test compound treated cells expressing amyloid precursor protein.
# Cells stably expressing Amyloid Precursor Protein (APP) were plated at a density of 40K cells/well in 96 well plates (Costar). The cells were cultivated for 24 hours at 37C. and 5% CO2 in DMEM supplemented with 10% FBS. The test compounds were then added to cells in 10-point dose response concentrations with the starting concentration being either 100 μM or 10 μM. The compounds were diluted from stock solutions in DMSO and the final DMSO concentration of the test compounds on cells was 0.1%. After 24 h of incubation with the test compounds the supernatant conditioned media was collected and the Aβ 40 levels were determined using a sandwich ELISA. The IC50 of the compound was calculated from the percent of control or percent inhibition of Aβ 40 as a function of the concentration of the test compound.
# The sandwich ELISA to detect Aβ 40 was performed in 96 well microtiter plates, which were pre-treated with goat anti-rabbit IgG (Pierce). The capture and detecting antibody pair that were used to detect Aβ 40 from cell supernatants were affinity purified pAb40 (Biosource) and biotinylated 6E10 (Signet Labs Inc.), respectively. The optimal concentration for the pAb40 antibody was 3 μg/ml in Superblock/TBS (Pierce) that was supplemented with 0.05% Tween 20 (Sigma). Optimal concentration for the detection antibody 6E10-biotinylated was 0.5 μg/ml in Superblock/TBS (Pierce) that had been supplemented with 2% normal goat serum and 2% normal mouse serum.
# Cellular supernatants were incubated with the capture antibody for 3 h at 4° C., followed by 3 wash steps in TBS-tween (0.05%). The detecting antibody incubation was for 2 h at 4° C., again followed by the wash steps as described previously. The final readout of the ELISA is Time-Resolved Fluorescence (counts per minute) using Delfia reagents Streptavidin-Europium and Enhancement solutions (Perkin Elmer) and the Victor 2 multilabel counter (Perkin Elmer).
# [3] = biological target: Beta Secretase enzyme (BACE1) (Homo sapiens, UniProt P56817); assay: In vitro enzymatic BACE FRET assay; format: biochemical; conditions: read-out: BACE1 FRET assay IC50
# Sequence of Beta Secretase enzyme (BACE1) (P56817 46-501): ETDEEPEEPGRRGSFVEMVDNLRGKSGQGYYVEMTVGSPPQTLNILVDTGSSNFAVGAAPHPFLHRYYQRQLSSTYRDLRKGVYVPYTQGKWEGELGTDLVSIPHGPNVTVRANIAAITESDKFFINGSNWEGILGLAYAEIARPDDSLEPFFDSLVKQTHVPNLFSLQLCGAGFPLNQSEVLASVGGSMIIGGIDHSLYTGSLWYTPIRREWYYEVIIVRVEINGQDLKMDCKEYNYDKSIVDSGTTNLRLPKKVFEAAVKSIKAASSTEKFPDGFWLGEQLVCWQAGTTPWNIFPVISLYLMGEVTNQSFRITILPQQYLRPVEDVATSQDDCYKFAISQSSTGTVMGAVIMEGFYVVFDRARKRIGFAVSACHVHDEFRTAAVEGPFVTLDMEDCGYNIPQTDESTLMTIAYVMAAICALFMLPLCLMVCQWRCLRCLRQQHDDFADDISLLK
# Method: In Vitro Enzymatic BACE FRET (Fluorescence Resonance Energy Transfer) Assay (Enzyme Assay Data in the Example Tables I and II)
# The assay buffer used in this screen is 0.05 M acetate, pH 4.2, 10% DMSO final, 100 uM genapol (which is a nonionic detergent, below its Critical Micelle Concentration). […] This assay is effectively started by the addition of FRET substrate (50 nM) and the combination is incubated for one hour. The FRET assay is terminated with by addition of Tris buffer, which raises the pH to neutrality, and the fluorescence is determined. The FRET substrate is a peptide with commercially available fluorophore and quencher, on opposite sides of the BACE cleavage site. Proteolytic cleavage of the FRET substrate releases quenching of fluorescence (excitation […] and […]).
SMILES,IC50 [1],"IC50 ([3]; average IC50, enzyme assay)",further results
"C[C@@]1(c2cc(Br)ccc2F)CS(=O)(=O)C2(CCOC2)C(N)=N1 (mixture of isomers) [Example 181, (8R)-10-Amino-8-(5-bromo-2-fluorophenyl)-8-methyl-2-oxa-6-thia-9-azaspiro[4.5]dec-9-ene 6,6-dioxide]",43.3 µM,–,"IC50 ([2]; average IC50, HEK cells): > 15.6 µM; IC50 ([3]; average IC50): 16.3 µM"
"CC1(C)C(N)=N[C@](CF)(c2cc(NC(=O)c3cnc(C(F)F)cn3)ccc2F)CS1(=O)=O [Example 376, N-(3-((3S)-5-amino-3-(fluoromethyl)-6,6-dimethyl-1,1-dioxido-3,6-dihydro-2H-1,4-thiazin-3-yl)-4-fluorophenyl)-5-(difluoromethyl)-2-pyrazinecarboxamide]",172 µM,–,IC50 [2]: 0.0615 µM; IC50 [3]: 0.00223 µM
"COc1cnc2c(Nc3ccc(F)c([C@@]4(C)N=C(N)C5(CC5)S(=O)(=O)[C@H]4F)c3)nccc2n1 [Example 208, N-(3-((5R,6R)-8-amino-5-fluoro-6-methyl-4,4-dioxido-4-thia-7-azaspiro[2.5]oct-7-en-6-yl)-4-fluorophenyl)-2-methoxypyrido[3,4-b]pyrazin-5-amine]",696 µM,–,"IC50 ([2]; average IC50, HEK cells): 0.0107 µM; IC50 ([3]; average IC50): < 0.002 µM"
"Cc1cc(Cl)cnc1C(=O)Nc1ccc(F)c([C@]2(C)CS(=O)(=O)C3(CC(F)(F)C3)C(N)=N2)c1 [Example 124, (R)—N-(3-(9-amino-2,2-difluoro-7-methyl-5,5-dioxido-5-thia-8-azaspiro[3.5]non-8-en-7-yl)-4-fluorophenyl)-5-chloro-3-methylpicolinamide]",96.3 µM,–,IC50 [2]: 0.0246 µM; IC50 [3]: < 0.002 µM
"CC1(C)C(N)=N[C@](C)(c2cc(Nc3csc4cc(C#N)cnc34)ccc2F)CS1(=O)=O [Example 73, (R)-3-((3-(5-Amino-3,6,6-trimethyl-1,1-dioxido-3,6-dihydro-2H-1,4-thiazin-3-yl)-4-fluorophenyl)amino)thieno[3,2-b]pyridine-6-carbonitrile]",27.3 µM,–,"IC50 ([2]; Aβ40, 24 h incubation): 0.0016 µM; IC50 [3]: 0.002 µM"
"Cc1cc(OC(F)F)cnc1C(=O)Nc1ccc(F)c([C@@]2(C)N=C(N)C3(CC3)S(=O)(=O)[C@H]2F)c1 [Example 203, N-(3-((5R,6R)-8-amino-5-fluoro-6-methyl-4,4-dioxido-4-thia-7-azaspiro[2.5]oct-7-en-6-yl)-4-fluorophenyl)-5-(difluoromethoxy)-3-methyl-2-pyridinecarboxamide]",30.2 µM,–,"IC50 ([2]; average IC50, HEK cells): 0.0023 µM; IC50 ([3]; average IC50): 0.00048 µM"
"CC1(C)C(N)=N[C@](C)(c2cc(Oc3ccc(C(F)(F)F)cn3)ccc2F)CS1(=O)=O [Example 279, (5R)-5-(2-fluoro-5-((5-(trifluoromethyl)-2-pyridinyl)oxy)phenyl)-2,2,5-trimethyl-5,6-dihydro-2H-1,4-thiazin-3-amine 1,1-dioxide]",188 µM,5.6 µM,"IC50 ([2]; average IC50, cell assay): 2.09 µM"
"Cc1cc(Cl)cnc1C(=O)Nc1ccc(F)c([C@]2(CF)CS(=O)(=O)C3(CCC3)C(N)=N2)c1 [Example 366, N-(3-((7S)-9-amino-7-(fluoromethyl)-5,5-dioxido-5-thia-8-azaspiro[3.5]non-8-en-7-yl)-4-fluorophenyl)-5-chloro-3-methyl-2-pyridinecarboxamide]",241 µM,0.00079 µM,"IC50 ([2]; average IC50, HEK cell assay): 0.0141 µM"
"Cc1nc(F)c([C@]2(C)CS(=O)(=O)C(C)(C)C(N)=N2)cc1NC(=O)c1ccc(Cl)cn1 [Example 397, N-(5-((3R)-5-amino-3,6,6-trimethyl-1,1-dioxido-3,6-dihydro-2H-1,4-thiazin-3-yl)-6-fluoro-2-methyl-3-pyridinyl)-5-chloro-2-pyridinecarboxamide]",523 µM,–,IC50 [2]: 3.25 µM; IC50 [3]: 3.04 µM
"CC1(C)C(N)=N[C@](CF)(c2cc(NC(=O)c3ccc(Cl)cn3)ccc2F)CS1(=O)=O [Example 193, (S)—N-(3-(5-amino-3-(fluoromethyl)-6,6-dimethyl-1,1-dioxido-3,6-dihydro-2H-1,4-thiazin-3-yl)-4-fluorophenyl)-5-chloropicolinamide]",228 µM,–,"IC50 ([2]; average IC50, HEK cells): 0.0161 µM; IC50 ([3]; average IC50): 0.00076 µM"
"COc1ccnc(Oc2ccc(F)c([C@]3(C)CS(=O)(=O)C(C)(C)C(N)=N3)c2)c1 [Example 287, (5R)-5-(2-fluoro-5-((4-methoxy-2-pyridinyl)oxy)phenyl)-2,2,5-trimethyl-5,6-dihydro-2H-1,4-thiazin-3-amine 1,1-dioxide]",204 µM,0.1 µM,–
"CC1(C)C(N)=N[C@](C)(c2cc(Nc3ncnc4cc(C#N)cnc34)ccc2F)C(F)S1(=O)=O (stereo partly drawn) [Example 229, 4-((3-((3R)-5-amino-2-fluoro-3,6,6-trimethyl-1,1-dioxido-3,6-dihydro-2H-1,4-thiazin-3-yl)-4-fluorophenyl)amino)pyrido[3,2-d]pyrimidine-7-carbonitrile]",80.7 µM,0.00101 µM,–

# Second part, led by results:
IC50 [1],"IC50 ([3]; average IC50, enzyme assay)",SMILES,further results
771 µM,2.89 µM,"CC1(C)C(N)=N[C@](C)(c2cc(Oc3nccc(C(F)(F)F)c3C#N)ccc2F)CS1(=O)=O [Example 312, 2-(3-((3R)-5-amino-3,6,6-trimethyl-1,1-dioxido-3,6-dihydro-2H-1,4-thiazin-3-yl)-4-fluorophenoxy)-4-(trifluoromethyl)-3-pyridinecarbonitrile]","IC50 ([2]; average IC50, HEK cell assay): 1.59 µM"
224 µM,4.16 µM,"CC1(C)C(N)=N[C@](C)(c2cc(Oc3c(C#N)ccnc3Cl)ccc2F)CS1(=O)=O [Example 308, 3-(3-((3R)-5-amino-3,6,6-trimethyl-1,1-dioxido-3,6-dihydro-2H-1,4-thiazin-3-yl)-4-fluorophenoxy)-2-chloro-4-pyridinecarbonitrile]","IC50 ([2]; average IC50, HEK cell assay): 3.27 µM"
222 µM,0.0935 µM,"CC1(C)C(N)=N[C@](C)(c2cc(Oc3cnccn3)ccc2F)CS1(=O)=O [Example 270, (5R)-5-(2-fluoro-5-(2-pyrazinyloxy)phenyl)-2,2,5-trimethyl-5,6-dihydro-2H-1,4-thiazin-3-amine 1,1-dioxide]","IC50 ([2]; average IC50, cell assay): 0.0511 µM"
650 µM,–,COc1cnc(C(=O)Nc2ccc(F)c([C@]3(C)CS(=O)(=O)[C@](C)(F)C(N)=N3)c2)cn1 [Example 176],"IC50 ([2]; average IC50, HEK cells): 0.254 µM; IC50 ([3]; average IC50): 0.0028 µM"
> 44.4 µM,0.00659 µM,"CC1(C)C(N)=N[C@](C)(c2cc(Nc3nccc4nc(C(F)(F)F)cnc34)ccc2F)C(F)S1(=O)=O (stereo partly drawn) [Example 227, N-(3-((3R)-5-amino-2-fluoro-3,6,6-trimethyl-1,1-dioxido-3,6-dihydro-2H-1,4-thiazin-3-yl)-4-fluorophenyl)-2-(trifluoromethyl)pyrido[3,4-b]pyrazin-5-amine]",–
528 µM,3.53 µM,"NC1=N[C@@](CF)(c2cc(Nc3nccc4cc(Cl)cnc34)ccc2F)CS(=O)(=O)C12CCC2 [Example 244, N-(3-((7R)-9-amino-7-(fluoromethyl)-5,5-dioxido-5-thia-8-azaspiro[3.5]non-8-en-7-yl)-4-fluorophenyl)-3-chloro-1,7-naphthyridin-8-amine]",–
